Experimental data reported in paper PMC10525585, “Evaluation of the Antibacterial Effect of Aurone-Derived Triazoles on Staphylococcus aureus” (Antibiotics, 2023).
Where two headings read alike, the source gives them in different places.

Assays:
[1] = system: methicillin-sensitive S. aureus ATCC 29213 (MSSA); experiment: microbe, parasite or virus in culture; settings: for IC50 / inhibition at 100 µM: Staphylococcus aureus; for IC50: read-out: IC50 (µM) MSSA; for inhibition at 100 µM: read-out: MSSA inhibition (100µM); for Max SI (CC50/IC50): HepG2 CC50 / MSSA IC50
Method: (§1) MRSA strain ATCC 43300 and MSSA strain S. aureus ATCC 29213 were grown on Tryptic Soy Agar (TSA) plates. Before use, an isolated colony was transferred from the TSA plate into Tryptic Soy Broth (TSB) and incubated 18–24 h in a humidified incubator at 37 °C. To adjust for a standard concentration of bacteria, the turbidity of the culture was measured at 600 nm, and its optical density (OD600) adjusted to be in the range 0.08–0.12 which equates to a concentration of approximately 1 × 10^8 CFU/mL. This suspension was diluted 1:20 in TSB. […] MRSA strain S. aureus ATCC 43300 and MSSA strain S. aureus ATCC 29213 were used for all testing in this study.
(§2) The assay for anti-Staphylococcal activity of AT compounds was prepared in 96-well transparent, U-bottom plates. A series of 2-fold dilutions of AT concentrations was tested in triplicate, with each well containing 10 µL of prepared bacterium and 90 µL of AT mixture in CAMHB. […] Blank wells with only CAMHB, a negative control well with 10 µL of bacterium solution mixed into 90 µL CAMHB, a vehicle control well with bacteria mixed into 1% DMSO in CAMBH, and a positive cell death control with vancomycin (1 µL of stock 2 mg/mL solution in 89 µL CAMHB with 10 µL of bacteria) were included. The plate was incubated for 18–24 h at 37 °C in a humidified incubator. Before measurement, PrestoBlue^TM dye (Invitrogen, Carlsbad, CA, USA) was added (10 µL per well) and incubated for 1 h with aluminum foil covering the plate. A CLARIOstar® (BMG LABTECH, Cary, NC, USA) multi-mode plate reader was used to measure the fluorescence at wavelengths of 560 nm for excitation and 590 nm for emission. Inhibitory concentration (IC50) values were defined as half inhibitory concentration and were computed using GraphPad Prism version 9.1 software.

[2] = system: methicillin-resistant S. aureus ATCC 43300 (MRSA); experiment: Antibacterial assay (broth microdilution, PrestoBlue); assay type: cell-based, Staphylococcus aureus
Method: as §1, §2

[3] = Hemolysis assay; assay type: cell-based, human; settings: human, human red blood cells (0.5% final suspension, single donor), 1 h, 37 °C, read-out: Hemolysis by AT Compounds (%)
Method: (§3) A single donor-specific blood sample was acquired from Innovative Research Inc. (Novi, MI, USA) for the assay (donor#:1WB3ALS40ML-36517). A volume of 1–2 mL of the human red blood cells (hRBCs in Alsevier’s solution) was mixed with 8–10 mL of Phosphate-Buffered Saline (PBS) in a 15 mL centrifuge tube to pellet by centrifugation at 1400× g in a swinging bucket centrifuge for 10 min. The supernatant was then removed, and the cells were washed with 10 mL of PBS two additional times. The cells were resuspended in PBS to achieve a final 1% solution of hRBCs.
(§4) The wells of a 96-well U-bottom plate that contained AT compounds were prefilled with 50 µL of PBS. A 2-fold dilution of AT compounds was prepared. For each triplicate, an initial AT dilution was prepared using 6 µL of AT stock solution in 144 µL of PBS. This initial mixture was diluted 2-fold on a 96-well plate following the method described above for a final volume of 50 µL of diluted AT in each well. As a final step, 50 µL of the 1% hRBC solution was added to each well, except the blank wells. PBS and hRBCs were used for negative control, whereas hRBCs with 1% and 0.1% Triton-X100 were used as positive controls. After 1 h of incubation at 37 °C in a humidified incubator, the plate was centrifuged at 1000 rpm for 10 min in a Thermo Sorvall Legend XTR centrifuge with a TX-750 swinging bucket rotor (Thermo Fisher Scientific, Waltham, MA, USA) to pellet intact cells. After centrifugation, 50 µL of supernatant was transferred from each well into a new 96-well U-bottom plate and hemolysis of the hRBCs detected in a plate-reader for absorbance at 405 nm. Hemolytic activity for all concentrations of the ATs was computed following this formula:(1) % hemolysis=OD405nmsample− OD405nmnegative control/OD405nmpositivecontrol[…]

[4] = system: human red blood cells; experiment: Hemolysis assay; assay type: cell-based; settings: overall statement
Method: as §3, §4

[5] = system: MRSA; experiment: Growth curve assay (Bioscreen C, 48 h); assay type: cell-based, Staphylococcus aureus; settings: 48 h growth curve; for strength of growth inhibition: concentrations closer to the IC50 values (5–25 µM)
Method: (§5) This suspension was diluted 1:20 in TSB.
(§6) For the growth curve assay, honeycomb plates (Growth Curves USA, Piscataway, NJ, USA) were used with TSB as the growth medium. Using bacterial cultures as described above, growth curve measurements were carried out in quintuplicates. For positive growth controls, wells with 10 µL of bacteria mixed into 90 µL of TSB were used. For quintuplicate treatment wells, 4-fold dilutions of AT compounds were used such that AT concentrations of 100, 25, 6.25, and 1.56 µM were tested. A 10 µL inoculum of bacteria prepared as described above was added to each dilution of the ATs. The growth in each well was measured in 15 min intervals for 48 h at 37 °C in the Bioscreen C instrument. The results were processed and analyzed with Microsoft Excel (version 2201) and GraphPad Prism 9.3.1 software (GraphPad by Dotmatics, Boston, MA, USA).

[6] = system: MSSA; experiment: Growth curve assay (Bioscreen C, 48 h); assay type: cell-based, Staphylococcus aureus; settings: 48 h growth curve; for strength of growth inhibition: concentrations closer to the IC50 values (5–25 µM)
Method: as §5, §6

[7] = Staphylococcus aureus, Table 1 and text, 18–24 h, CAMHB, read-out: IC50 (µM) MRSA
[8] = Staphylococcus aureus, Table S1
[9] = Staphylococcus aureus, Table S1, read-out: IC50 MRSA

IC50 [1] [µM]	IC50 [2, 7] [µM]	IC50 ([2]; Table 1 and text, 18–24 h, CAMHB, read-out: IC50 (µM) MRSA) [µM]	IC50 [2, 9] [µM]	SMILES	inhibition at 100 µM [1] [%]	inhibition at 100 µM [2, 8] [%]	hemolysis at 1 h, 3.125 µM [3] [%]	hemolysis at 1 h, 6.25 µM [3] [%]	hemolysis at 1 h, 12.5 µM [3] [%]	hemolysis at 1 h, 25 µM [3] [%]	hemolysis at 1 h, 50 µM [3] [%]	hemolysis at 1 h, 100 µM [3] [%]	hemolytic activity for human erythrocytes [4]	relative inhibition of MRSA growth ([5]; 0–100 µM, among the four ATs)	blocking of bacterial growth ([5]; concentrations below 10 µM)	strength of growth inhibition [5]	blocking of bacterial growth ([6]; concentrations below 10 µM)	strength of growth inhibition [6]	Max SI (CC50/IC50) [1]
3.09	< 6	3.87		O=C(c1ccccc1O)c1n[nH]nc1-c1ccc(Br)s1 [AT137]	87.5	93.8	-2.6	-0.5	-0.8	2.7	1.4	1.8	not hemolytic	greatest inhibition	successful in blocking bacterial growth	strong inhibitors	successful in blocking bacterial growth	strong inhibitors	
3.18	8.29		35.4	O=C(c1ccccc1O)c1n[nH]nc1-c1cccc(C(F)(F)F)c1 [AT116]	82	100	0.8	-0.7	2.3	2.1	2.6	3.5	not hemolytic			weaker inhibitors		weaker inhibitors	16.01
5.44	22.4		23.5	O=C(c1ccccc1O)c1n[nH]nc1-c1ccc(Cl)cc1 [AT106]	87.4	64.1	0.6	-0.1	1.2	1.2	-0.3	1.1	not hemolytic			weaker inhibitors		weaker inhibitors	12.99
